# In ChEMBL document CHEMBL5537170, “Design, Synthesis, and Anti-Osteoporotic Characterization of Arginine N-Glycosylated Teriparatide Analogs via the Silver-catalyzed Solid-Phase Glycosylation Strategy” (J Med Chem, 2024):
# *1 amine or outer side, *2 acyl side, *3 side chain or, on linkers, in order; H or OH if unused. Where a SMILES comes first, the peptide text is derived from it. [ ]: non-standard residue; d: D form. X7 = N=C(NCCC[C@H](N[*:1])C(=O)[*:2])N[C@H]1O[C@H](CO)[C@@H](O)[C@H](O)[C@@H]1O
# Test: Cytotoxicity against C57BL/6 mouse Pre-Osteoblast cells assessed as cell death upto 5 uM incubated for 4 days by CCK-8 assay
# Assay type: toxicity, cell-based
# Conditions: 96 h, time 4 day
row,Compound,Activity
1,CC[C@H](C)[C@H](NC(=O)[C@H](CCC(=O)O)NC(=O)[C@H](CO)NC(=O)[C@@H](NC(=O)[C@H](CO)NC(C)=O)C(C)C)C(=O)N[C@@H](CCC(N)=O)C(=O)N[C@@H](CC(C)C)C(=O)N[C@@H](CCSC)C(=O)N[C@@H](Cc1cnc[nH]1)C(=O)N[C@@H](CC(N)=O)C(=O)N[C@@H](CC(C)C)C(=O)NCC(=O)N[C@@H](CCCCN)C(=O)N[C@@H](Cc1cnc[nH]1)C(=O)N[C@@H](CC(C)C)C(=O)N[C@@H](CC(N)=O)C(=O)N[C@@H](CO)C(=O)N[C@@H](CCSC)C(=O)N[C@@H](CCC(=O)O)C(=O)N[C@@H](CCCNC(=N)N)C(=O)N[C@H](C(=O)N[C@@H](CCC(=O)O)C(=O)N[C@@H](Cc1c[nH]c2ccccc12)C(=O)N[C@@H](CC(C)C)C(=O)N[C@@H](CCCNC(=N)N[C@@H]1O[C@H](CO)[C@@H](O)[C@H](O)[C@H]1NC(C)=O)C(=O)N[C@@H](CCCCN)C(=O)N[C@@H](CCCCN)C(=O)N[C@@H](CC(C)C)C(=O)N[C@@H](CCC(N)=O)C(=O)N[C@@H](CC(=O)O)C(=O)N[C@H](C(=O)N[C@@H](Cc1cnc[nH]1)C(=O)N[C@@H](CC(N)=O)C(=O)N[C@@H](Cc1ccccc1)C(N)=O)C(C)C)C(C)C,Non-Toxic
2,CC[C@H](C)[C@H](NC(=O)[C@H](CCC(=O)O)NC(=O)[C@H](CO)NC(=O)[C@@H](NC(=O)[C@H](CO)NC(C)=O)C(C)C)C(=O)N[C@@H](CCC(N)=O)C(=O)N[C@@H](CC(C)C)C(=O)N[C@@H](CCSC)C(=O)N[C@@H](Cc1cnc[nH]1)C(=O)N[C@@H](CC(N)=O)C(=O)N[C@@H](CC(C)C)C(=O)NCC(=O)N[C@@H](CCCCN)C(=O)N[C@@H](Cc1cnc[nH]1)C(=O)N[C@@H](CC(C)C)C(=O)N[C@@H](CC(N)=O)C(=O)N[C@@H](CO)C(=O)N[C@@H](CCSC)C(=O)N[C@@H](CCC(=O)O)C(=O)N[C@@H](CCCNC(=N)N[C@H]1O[C@H](CO)[C@@H](O)[C@H](O)[C@@H]1O)C(=O)N[C@H](C(=O)N[C@@H](CCC(=O)O)C(=O)N[C@@H](Cc1c[nH]c2ccccc12)C(=O)N[C@@H](CC(C)C)C(=O)N[C@@H](CCCNC(=N)N[C@H]1O[C@H](CO)[C@@H](O)[C@H](O)[C@@H]1O)C(=O)N[C@@H](CCCCN)C(=O)N[C@@H](CCCCN)C(=O)N[C@@H](CC(C)C)C(=O)N[C@@H](CCC(N)=O)C(=O)N[C@@H](CC(=O)O)C(=O)N[C@H](C(=O)N[C@@H](Cc1cnc[nH]1)C(=O)N[C@@H](CC(N)=O)C(=O)N[C@@H](Cc1ccccc1)C(N)=O)C(C)C)C(C)C (Ac-SVSEIQLMHNLGKHLNSME[X7]VEWL[X7]KKLQDVHNF-NH2),Non-Toxic
3,CC[C@H](C)[C@H](NC(=O)[C@H](CCC(=O)O)NC(=O)[C@H](CO)NC(=O)[C@@H](NC(=O)[C@H](CO)NC(C)=O)C(C)C)C(=O)N[C@@H](CCC(N)=O)C(=O)N[C@@H](CC(C)C)C(=O)N[C@@H](CCSC)C(=O)N[C@@H](Cc1cnc[nH]1)C(=O)N[C@@H](CC(N)=O)C(=O)N[C@@H](CC(C)C)C(=O)NCC(=O)N[C@@H](CCCCN)C(=O)N[C@@H](Cc1cnc[nH]1)C(=O)N[C@@H](CC(C)C)C(=O)N[C@@H](CC(N)=O)C(=O)N[C@@H](CO)C(=O)N[C@@H](CCSC)C(=O)N[C@@H](CCC(=O)O)C(=O)N[C@@H](CCCNC(=N)N[C@@H]1O[C@H](CO)[C@@H](O)[C@H](O)[C@H]1NC(C)=O)C(=O)N[C@H](C(=O)N[C@@H](CCC(=O)O)C(=O)N[C@@H](Cc1c[nH]c2ccccc12)C(=O)N[C@@H](CC(C)C)C(=O)N[C@@H](CCCNC(=N)N)C(=O)N[C@@H](CCCCN)C(=O)N[C@@H](CCCCN)C(=O)N[C@@H](CC(C)C)C(=O)N[C@@H](CCC(N)=O)C(=O)N[C@@H](CC(=O)O)C(=O)N[C@H](C(=O)N[C@@H](Cc1cnc[nH]1)C(=O)N[C@@H](CC(N)=O)C(=O)N[C@@H](Cc1ccccc1)C(N)=O)C(C)C)C(C)C,Non-Toxic
4,CC[C@H](C)[C@H](NC(=O)[C@H](CCC(=O)O)NC(=O)[C@H](CO)NC(=O)[C@@H](NC(=O)[C@H](CO)NC(C)=O)C(C)C)C(=O)N[C@@H](CCC(N)=O)C(=O)N[C@@H](CC(C)C)C(=O)N[C@@H](CCSC)C(=O)N[C@@H](Cc1cnc[nH]1)C(=O)N[C@@H](CC(N)=O)C(=O)N[C@@H](CC(C)C)C(=O)NCC(=O)N[C@@H](CCCCN)C(=O)N[C@@H](Cc1cnc[nH]1)C(=O)N[C@@H](CC(C)C)C(=O)N[C@@H](CC(N)=O)C(=O)N[C@@H](CO)C(=O)N[C@@H](CCSC)C(=O)N[C@@H](CCC(=O)O)C(=O)N[C@@H](CCCNC(=N)N[C@@H]1O[C@H](CO)[C@@H](O)[C@H]1O)C(=O)N[C@H](C(=O)N[C@@H](CCC(=O)O)C(=O)N[C@@H](Cc1c[nH]c2ccccc12)C(=O)N[C@@H](CC(C)C)C(=O)N[C@@H](CCCNC(=N)N)C(=O)N[C@@H](CCCCN)C(=O)N[C@@H](CCCCN)C(=O)N[C@@H](CC(C)C)C(=O)N[C@@H](CCC(N)=O)C(=O)N[C@@H](CC(=O)O)C(=O)N[C@H](C(=O)N[C@@H](Cc1cnc[nH]1)C(=O)N[C@@H](CC(N)=O)C(=O)N[C@@H](Cc1ccccc1)C(N)=O)C(C)C)C(C)C,Non-Toxic
5,CC[C@H](C)[C@H](NC(=O)[C@H](CCC(=O)O)NC(=O)[C@H](CO)NC(=O)[C@@H](NC(=O)[C@H](CO)NC(C)=O)C(C)C)C(=O)N[C@@H](CCC(N)=O)C(=O)N[C@@H](CC(C)C)C(=O)N[C@@H](CCSC)C(=O)N[C@@H](Cc1cnc[nH]1)C(=O)N[C@@H](CC(N)=O)C(=O)N[C@@H](CC(C)C)C(=O)NCC(=O)N[C@@H](CCCCN)C(=O)N[C@@H](Cc1cnc[nH]1)C(=O)N[C@@H](CC(C)C)C(=O)N[C@@H](CC(N)=O)C(=O)N[C@@H](CO)C(=O)N[C@@H](CCSC)C(=O)N[C@@H](CCC(=O)O)C(=O)N[C@@H](CCCNC(=N)N)C(=O)N[C@H](C(=O)N[C@@H](CCC(=O)O)C(=O)N[C@@H](Cc1c[nH]c2ccccc12)C(=O)N[C@@H](CC(C)C)C(=O)N[C@@H](CCCNC(=N)N[C@@H]1O[C@H](CO)[C@@H](O)[C@H](O)[C@H]1O)C(=O)N[C@@H](CCCCN)C(=O)N[C@@H](CCCCN)C(=O)N[C@@H](CC(C)C)C(=O)N[C@@H](CCC(N)=O)C(=O)N[C@@H](CC(=O)O)C(=O)N[C@H](C(=O)N[C@@H](Cc1cnc[nH]1)C(=O)N[C@@H](CC(N)=O)C(=O)N[C@@H](Cc1ccccc1)C(N)=O)C(C)C)C(C)C,Non-Toxic
6,CC[C@H](C)[C@H](NC(=O)[C@H](CCC(=O)O)NC(=O)[C@H](CO)NC(=O)[C@@H](NC(=O)[C@H](CO)NC(C)=O)C(C)C)C(=O)N[C@@H](CCC(N)=O)C(=O)N[C@@H](CC(C)C)C(=O)N[C@@H](CCSC)C(=O)N[C@@H](Cc1cnc[nH]1)C(=O)N[C@@H](CC(N)=O)C(=O)N[C@@H](CC(C)C)C(=O)NCC(=O)N[C@@H](CCCCN)C(=O)N[C@@H](Cc1cnc[nH]1)C(=O)N[C@@H](CC(C)C)C(=O)N[C@@H](CC(N)=O)C(=O)N[C@@H](CO)C(=O)N[C@@H](CCSC)C(=O)N[C@@H](CCC(=O)O)C(=O)N[C@@H](CCCNC(=N)N[C@H]1O[C@H](CO)[C@@H](O)[C@H](O)[C@H]1O)C(=O)N[C@H](C(=O)N[C@@H](CCC(=O)O)C(=O)N[C@@H](Cc1c[nH]c2ccccc12)C(=O)N[C@@H](CC(C)C)C(=O)N[C@@H](CCCNC(=N)N)C(=O)N[C@@H](CCCCN)C(=O)N[C@@H](CCCCN)C(=O)N[C@@H](CC(C)C)C(=O)N[C@@H](CCC(N)=O)C(=O)N[C@@H](CC(=O)O)C(=O)N[C@H](C(=O)N[C@@H](Cc1cnc[nH]1)C(=O)N[C@@H](CC(N)=O)C(=O)N[C@@H](Cc1ccccc1)C(N)=O)C(C)C)C(C)C,Non-Toxic
7,CC[C@H](C)[C@H](NC(=O)[C@H](CCC(=O)O)NC(=O)[C@H](CO)NC(=O)[C@@H](NC(=O)[C@H](CO)NC(C)=O)C(C)C)C(=O)N[C@@H](CCC(N)=O)C(=O)N[C@@H](CC(C)C)C(=O)N[C@@H](CCSC)C(=O)N[C@@H](Cc1cnc[nH]1)C(=O)N[C@@H](CC(N)=O)C(=O)N[C@@H](CC(C)C)C(=O)NCC(=O)N[C@@H](CCCCN)C(=O)N[C@@H](Cc1cnc[nH]1)C(=O)N[C@@H](CC(C)C)C(=O)N[C@@H](CC(N)=O)C(=O)N[C@@H](CO)C(=O)N[C@@H](CCSC)C(=O)N[C@@H](CCC(=O)O)C(=O)N[C@@H](CCCNC(=N)N)C(=O)N[C@H](C(=O)N[C@@H](CCC(=O)O)C(=O)N[C@@H](Cc1c[nH]c2ccccc12)C(=O)N[C@@H](CC(C)C)C(=O)N[C@@H](CCCNC(=N)N[C@@H]1O[C@H](CO)[C@H](O)[C@H](O)[C@H]1O)C(=O)N[C@@H](CCCCN)C(=O)N[C@@H](CCCCN)C(=O)N[C@@H](CC(C)C)C(=O)N[C@@H](CCC(N)=O)C(=O)N[C@@H](CC(=O)O)C(=O)N[C@H](C(=O)N[C@@H](Cc1cnc[nH]1)C(=O)N[C@@H](CC(N)=O)C(=O)N[C@@H](Cc1ccccc1)C(N)=O)C(C)C)C(C)C,Non-Toxic
8,CC[C@H](C)[C@H](NC(=O)[C@H](CCC(=O)O)NC(=O)[C@H](CO)NC(=O)[C@@H](NC(=O)[C@H](CO)NC(C)=O)C(C)C)C(=O)N[C@@H](CCC(N)=O)C(=O)N[C@@H](CC(C)C)C(=O)N[C@@H](CCSC)C(=O)N[C@@H](Cc1cnc[nH]1)C(=O)N[C@@H](CC(N)=O)C(=O)N[C@@H](CC(C)C)C(=O)NCC(=O)N[C@@H](CCCCN)C(=O)N[C@@H](Cc1cnc[nH]1)C(=O)N[C@@H](CC(C)C)C(=O)N[C@@H](CC(N)=O)C(=O)N[C@@H](CO)C(=O)N[C@@H](CCSC)C(=O)N[C@@H](CCC(=O)O)C(=O)N[C@@H](CCCNC(=N)N)C(=O)N[C@H](C(=O)N[C@@H](CCC(=O)O)C(=O)N[C@@H](Cc1c[nH]c2ccccc12)C(=O)N[C@@H](CC(C)C)C(=O)N[C@@H](CCCNC(=N)N[C@@H]1O[C@@H](C)[C@H](O)[C@@H](O)[C@H]1O)C(=O)N[C@@H](CCCCN)C(=O)N[C@@H](CCCCN)C(=O)N[C@@H](CC(C)C)C(=O)N[C@@H](CCC(N)=O)C(=O)N[C@@H](CC(=O)O)C(=O)N[C@H](C(=O)N[C@@H](Cc1cnc[nH]1)C(=O)N[C@@H](CC(N)=O)C(=O)N[C@@H](Cc1ccccc1)C(N)=O)C(C)C)C(C)C,Non-Toxic
